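Method: 48-hour compound exposure of cells in 96-well plates, five concentrations, linear interpolation of endpoints. TGI denotes the concentration required for complete inhibition of growth.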
Tests used:
Test in all cases: DTP human tumour cell line panel, 48 h
[1] = test system: 786-0 renal
[2] = test system: A498 renal
[3] = test system: A549 NSCLC
[4] = test system: ACHN renal
[5] = test system: BT-549 breast
[6] = test system: CAKI-1 renal
[7] = test system: CCRF-CEM leukemia
[8] = test system: DU-145 prostate
[9] = test system: EKVX NSCLC
[10] = test system: HCC-2998 colon
[11] = test system: HCT-116 colon
[12] = test system: HCT-15 colon
[13] = test system: HL-60(TB) leukemia
[14] = test system: HOP-62 NSCLC
[15] = test system: HOP-92 NSCLC
[16] = test system: HS 578T breast
[17] = test system: HT29 colon
[18] = test system: IGROV1 ovarian
[19] = test system: K-562 leukemia
[20] = test system: KM12 colon
[21] = test system: MALME-3M melanoma
[22] = test system: MCF7 breast
[23] = test system: MDA-MB-231 breast
[24] = test system: MDA-MB-435
[25] = test system: MDA-N
[26] = test system: MOLT-4 leukemia
[27] = test system: NCI-H226 lung
[28] = test system: NCI-H23 lung
[29] = test system: NCI-H460 lung
[30] = test system: NCI-H522 lung
[31] = test system: NCI/ADR-RES ovarian
[32] = test system: OVCAR-3 ovarian
[33] = test system: OVCAR-4 ovarian
[34] = test system: OVCAR-5 ovarian
[35] = test system: OVCAR-8 ovarian
[36] = test system: PC-3 prostate
[37] = test system: RPMI-8226 leukemia
[38] = test system: RXF 393 renal
[39] = test system: SF-268 CNS
[40] = test system: SF-539 CNS
[41] = test system: SK-MEL-2 melanoma
[42] = test system: SK-MEL-28 melanoma
[43] = test system: SK-MEL-5 melanoma
[44] = test system: SK-OV-3 ovarian
[45] = test system: SN12C renal
[46] = test system: SNB-19 CNS
[47] = test system: SNB-75 CNS
[48] = test system: SR leukemia
[49] = test system: SW-620 colon
[50] = test system: T-47D breast
[51] = test system: TK-10 renal
[52] = test system: U251 CNS
[53] = test system: UACC-257 melanoma
[54] = test system: UO-31 renal
[55] = test system: COLO 205 colon
[56] = test system: DLD-1 colon
[57] = test system: DMS 114 small cell lung
[58] = test system: DMS 273 small cell lung
[59] = test system: KM20L2 colon
[60] = test system: LOX IMVI melanoma
[61] = test system: LXFL 529 NSCLC
[62] = test system: M14 melanoma
[63] = test system: M19-MEL melanoma
[64] = test system: SF-295 CNS
[65] = test system: SNB-78 CNS
[66] = test system: UACC-62 melanoma
[67] = test system: XF 498 CNS

Structure (SMILES): C=CC[C@]12C[C@@H](C(=O)OC)N(C(=O)OC)[C@H]1N(S(=O)(=O)c1ccccc1)c1ccccc12
- TGI [1]: > 100 µM
- TGI [2]: > 100 µM
- TGI [3]: > 100 µM
- TGI [4]: > 100 µM
- TGI [5]: > 100 µM
- TGI [6]: > 100 µM
- TGI [7]: > 100 µM
- TGI [8]: > 100 µM
- TGI [9]: > 100 µM
- TGI [10]: > 100 µM
- TGI [11]: > 100 µM
- TGI [12]: > 100 µM
- TGI [13]: > 100 µM
- TGI [14]: > 100 µM
- TGI [15]: > 100 µM
- TGI [16]: > 100 µM
- TGI [17]: > 100 µM
- TGI [18]: > 100 µM
- TGI [19]: > 100 µM
- TGI [20]: > 100 µM
- TGI [21]: > 100 µM
- TGI [22]: > 100 µM
- TGI [23]: > 100 µM
- TGI [24]: > 100 µM
- TGI [25]: > 100 µM
- TGI [26]: > 100 µM
- TGI [27]: > 100 µM
- TGI [28]: > 100 µM
- TGI [29]: > 100 µM
- TGI [30]: > 100 µM
- TGI [31]: > 100 µM
- TGI [32]: > 100 µM
- TGI [33]: > 100 µM
- TGI [34]: > 100 µM
- TGI [35]: > 100 µM
- TGI [36]: > 100 µM
- TGI [37]: > 100 µM
- TGI [38]: 66.9 µM
- TGI [39]: > 100 µM
- TGI [40]: > 100 µM
- TGI [41]: > 100 µM
- TGI [42]: > 100 µM
- TGI [43]: > 100 µM
- TGI [44]: > 100 µM
- TGI [45]: > 100 µM
- TGI [46]: > 100 µM
- TGI [47]: > 100 µM
- TGI [48]: > 100 µM
- TGI [49]: > 100 µM
- TGI [50]: > 100 µM
- TGI [51]: > 100 µM
- TGI [52]: > 100 µM
- TGI [53]: 77.3 µM
- TGI [54]: > 100 µM

Structure (SMILES): O=C1C=CC(=O)N1Nc1ccc([N+](=O)[O-])cc1[N+](=O)[O-]
- TGI [1]: > 100 µM
- TGI [2]: > 100 µM
- TGI [3]: > 100 µM
- TGI [4]: > 100 µM
- TGI [6]: > 71 µM
- TGI [7]: > 34.3 µM
- TGI [55]: > 60.7 µM
- TGI [56]: > 100 µM
- TGI [57]: > 100 µM
- TGI [58]: > 100 µM
- TGI [9]: > 100 µM
- TGI [10]: > 100 µM
- TGI [11]: > 100 µM
- TGI [12]: > 100 µM
- TGI [13]: > 51.5 µM
- TGI [14]: > 100 µM
- TGI [15]: > 77 µM
- TGI [17]: > 100 µM
- TGI [18]: > 100 µM
- TGI [19]: > 66.2 µM
- TGI [20]: > 100 µM
- TGI [59]: > 100 µM
- TGI [60]: > 100 µM
- TGI [61]: > 64.6 µM
- TGI [62]: 40 µM
- TGI [63]: > 100 µM
- TGI [21]: 31.1 µM
- TGI [26]: > 75.2 µM
- TGI [27]: > 100 µM
- TGI [28]: > 100 µM
- TGI [29]: > 100 µM
- TGI [30]: > 58.9 µM
- TGI [32]: > 100 µM
- TGI [33]: > 79.9 µM
- TGI [34]: > 100 µM
- TGI [35]: > 100 µM
- TGI [37]: > 68.7 µM
- TGI [39]: > 100 µM
- TGI [64]: > 100 µM
- TGI [40]: > 100 µM
- TGI [41]: > 100 µM
- TGI [42]: > 59.2 µM
- TGI [43]: > 100 µM
- TGI [44]: > 100 µM
- TGI [45]: > 100 µM
- TGI [46]: > 100 µM
- TGI [47]: > 100 µM
- TGI [65]: > 100 µM
- TGI [48]: > 63.1 µM
- TGI [49]: > 100 µM
- TGI [51]: > 100 µM
- TGI [52]: > 100 µM
- TGI [53]: > 100 µM
- TGI [66]: > 100 µM
- TGI [54]: > 100 µM

Structure (SMILES): CC(C)COP(=O)(OCC(C)C)C(NS(=O)(=O)c1ccccc1)(C(F)(F)F)C(F)(F)F
- TGI [1]: 25.7 µM
- TGI [3]: 14.4 µM
- TGI [4]: 10.2 µM
- TGI [5]: 19.6 µM
- TGI [6]: 18.6 µM
- TGI [7]: 36.6 µM
- TGI [55]: 3.94 µM
- TGI [8]: 29.8 µM
- TGI [9]: 19 µM
- TGI [10]: 18.5 µM
- TGI [11]: 21.7 µM
- TGI [12]: 23.8 µM
- TGI [13]: 4.13 µM
- TGI [14]: 35.1 µM
- TGI [15]: 7.64 µM
- TGI [16]: 97.9 µM
- TGI [17]: 25.4 µM
- TGI [18]: 16.8 µM
- TGI [19]: > 100 µM
- TGI [20]: 14.4 µM
- TGI [60]: 13.6 µM
- TGI [62]: 43.2 µM
- TGI [21]: 32.4 µM
- TGI [22]: > 100 µM
- TGI [23]: 5.56 µM
- TGI [24]: 22.3 µM
- TGI [25]: 20.6 µM
- TGI [26]: 14.9 µM
- TGI [27]: 39.9 µM
- TGI [28]: 14.2 µM
- TGI [30]: 17.4 µM
- TGI [31]: 23.6 µM
- TGI [32]: 23.8 µM
- TGI [33]: 13.5 µM
- TGI [34]: 38.1 µM
- TGI [35]: 25.5 µM
- TGI [36]: 31.7 µM
- TGI [37]: 6.46 µM
- TGI [38]: 21.1 µM
- TGI [39]: 34.7 µM
- TGI [64]: 37 µM
- TGI [40]: 29.1 µM
- TGI [41]: 14.3 µM
- TGI [42]: 37.1 µM
- TGI [43]: 33 µM
- TGI [44]: 29.9 µM
- TGI [45]: 18.8 µM
- TGI [46]: 54.1 µM
- TGI [47]: 12.6 µM
- TGI [48]: 38.1 µM
- TGI [49]: 41.6 µM
- TGI [50]: 9.34 µM
- TGI [51]: 15.6 µM
- TGI [52]: 17.3 µM
- TGI [53]: 17.5 µM
- TGI [66]: 19.1 µM
- TGI [54]: 7.4 µM

Structure (SMILES): O=C1C=C(O)c2[nH]c(=O)ccc2C1=O
- TGI [1]: > 100 µM
- TGI [2]: > 100 µM
- TGI [3]: > 100 µM
- TGI [4]: > 100 µM
- TGI [6]: > 100 µM
- TGI [7]: > 100 µM
- TGI [55]: > 100 µM
- TGI [56]: > 100 µM
- TGI [58]: > 100 µM
- TGI [9]: > 100 µM
- TGI [10]: > 100 µM
- TGI [11]: > 100 µM
- TGI [12]: > 100 µM
- TGI [13]: > 100 µM
- TGI [14]: > 100 µM
- TGI [15]: > 100 µM
- TGI [17]: > 100 µM
- TGI [18]: > 100 µM
- TGI [19]: > 100 µM
- TGI [59]: > 100 µM
- TGI [60]: > 100 µM
- TGI [62]: > 100 µM
- TGI [63]: > 100 µM
- TGI [21]: > 100 µM
- TGI [26]: > 100 µM
- TGI [27]: > 100 µM
- TGI [28]: > 100 µM
- TGI [29]: > 100 µM
- TGI [30]: > 100 µM
- TGI [32]: > 100 µM
- TGI [33]: 82.5 µM
- TGI [35]: > 100 µM
- TGI [37]: > 100 µM
- TGI [38]: > 100 µM
- TGI [39]: > 100 µM
- TGI [64]: > 100 µM
- TGI [40]: > 100 µM
- TGI [42]: > 100 µM
- TGI [43]: > 100 µM
- TGI [44]: > 100 µM
- TGI [45]: > 100 µM
- TGI [46]: > 100 µM
- TGI [47]: > 100 µM
- TGI [65]: > 100 µM
- TGI [48]: > 100 µM
- TGI [49]: > 100 µM
- TGI [51]: > 100 µM
- TGI [52]: > 100 µM
- TGI [53]: > 100 µM
- TGI [66]: > 100 µM
- TGI [54]: > 100 µM
- TGI [67]: > 100 µM

Source: PubChem BioAssay (NCI)
